The source of these data is patent publication US10472395B2, “Cyclic peptide analogs and conjugates thereof” (Sirenas LLC, priority 2015, dated 2019).

Read-outs that look alike come from different tables or passages of the source. Numbered stars: 1 amine (or outer) side, 2 acyl side, 3 side chain; on linkers, the order of the positions; unused ones are H or OH. Bridge positions count the residues as written; N and C are the ends. Square brackets hold non-standard residues; d marks the D form. Peptide text beside a SMILES is read from it. X12 = CC/C=C(\C)[C@@H](O[*:2])[C@@H](C)[C@@H](O)C/C=C(\C)C(=O)[*:1]; Hmp(2R,3S) = CC[C@H](C)[C@@H](O)C(=O)O; dNMeL = CN[C@H](CC(C)C)C(=O)O; NMeA = CN[C@@H](C)C(=O)O; Sar = CNCC(=O)O

For orientation: IC50 means the concentration that inhibits the measured activity by half. Read a high IC50 as weaker potency in that assay.

The test system of one data set is HeLa S3 cells. Conditions: K. Suenaga et al., Bioorg. Med. Chem. Lett. 2008, 18, 3902-3905; cited from earlier work.
Data set [1] concerns BT-474 human mammary gland ductal carcinoma cells. In words: Inhibitory response of test compounds against BT-474 cells (Cell Titer-Glo, 72 h). The data set is classed as cell-based. How it is done: (§1) BT-474 human mammary gland ductal carcinoma cells were seeded in a clear polystyrene 96-well microculture plate (Corning® Costar® 96-well flat bottom plate, Cat.#3997) in a total volume of 90 μL/well. After 24 hours of incubation in a humidified incubator at 37° C. with 5% CO2 and 95% air, 10 μL of 10×, serially diluted test agents in growth medium were added to each well (10 pt dose response curve, highest concentration 10 μM of test agent). After 72 hours of culture in a humidified incubator at 37° C., in an atmosphere of 5% CO2 and 95% air, the plated cells and Cell Titer-Glo® (Promega G7571) reagents were brought to room temperature to equilibrate for 30 minutes. 100 μL of Cell Titer-Glo® reagent was added to each well. The plate was shaken for two minutes and then left to equilibrate for ten minutes. The media/Cell Titer-Glo® reagent was transferred to a white polystyrene 96-well microculture plate (Corning® Costar® 96-well flat bottom plate, Cat.#3917) before reading luminescence on a Tecan GENios microplate reader.
(§2) Percent inhibition of cell growth was calculated relative to untreated control wells. The IC50 value for the test agents was determined using Prism 6.05 by curve-fitting of the data using the following four parameter-logistic equation:
(§3) [formula] where Top is the maximal % of control absorbance, Bottom is the minimal % of control absorbance at the highest agent concentration, Y is the % of control absorbance, X is the agent concentration, IC50 is the concentration of agent that inhibits cell growth by 50% compared to the control cells, and n is the slope of the curve.
(In general: ATP-based viability assays read luminescence as a measure of living cells.)

The next data set deals with HCC1954 cells. In words: Inhibitory response of test compounds against HCC1954 cells (method analogous to BT-474). The data set is classed as cell-based. Here is the method: as §1, §2, §3
Inhibitory response of test compounds against HCC1954 cells was determined using a method analogous to that used for BT-474 cells.

In data set [2] the test system is several cancer cell lines. To be noted: Y. Nakao et al., J. Nat. Prod. 2004, 67, 1332-1340; cited from earlier work.

For `CC/C=C(\C)[C@H]1OC(=O)[C@H](C)N(C)C(=O)[C@H](C(C)C)NC(=O)CN(C)C(=O)[C@@H](CC(C)C)N(C)C(=O)[C@H](C(C)C)NC(=O)[C@@H]([C@@H](C)CC)OC(=O)/C(C)=C/C[C@H](O)[C@@H]1C` [Aurilide, aurilide] ([Hmp(2R,3S)]V[dNMeL][Sar]V[NMeA]; linker N-C via X12), the “cytotoxicity against HeLa S3 cells” value in the data set on HeLa S3 cells is given as “potent cytotoxicity”.

As for `C/C=C(\C)[C@H]1OC(=O)[C@@H](C)NC(=O)[C@H]([C@H](C)CC)NC(=O)CN(C)C(=O)[C@@H](Cc2ccccc2)N(C)C(=O)[C@H](C)NC(=O)[C@@H](CC(C)C)OC(=O)/C(C)=C/C[C@H](OC(=O)N(C)CCN(C)C=O)[C@@H]1C` [Compound 114], the concentration for half-maximal inhibition (IC50) in data set [1] (Homo sapiens) was less than 20 nM; in the data set with HCC1954 cells (Homo sapiens), 20 to 200 nM.

Take `C/C=C(\C)[C@H]1OC(=O)[C@@H](C)NC(=O)[C@H]([C@H](C)CC)NC(=O)CN(C)C(=O)[C@@H](Cc2ccccc2)N(C)C(=O)[C@H](C)NC(=O)[C@@H](CC(C)C)OC(=O)/C(C)=C/C[C@H](OC(=O)N(C)CCN(C)S(=O)(=O)c2ccc([N+](=O)[O-])cc2)[C@@H]1C` [Compound 115]: the IC50 (in data set [1] (Homo sapiens); with HCC1954 cells (Homo sapiens)) was less than 20 nM in each case.

For the compound `C/C=C(\C)[C@H]1OC(=O)[C@@H](C)NC(=O)[C@H]([C@H](C)CC)NC(=O)CN(C)C(=O)[C@@H](Cc2ccccc2)N(C)C(=O)[C@H](C)NC(=O)[C@@H](CC(C)C)OC(=O)/C(C)=C/C[C@H](OC(=O)NCCCOCCOCCOCCCNC(=O)c2ccc(C(C)=O)cc2)[C@@H]1C` [Compound 116], the results for the IC50 (in data set [1] (Homo sapiens); with HCC1954 cells (Homo sapiens)) were less than 20 nM and 20 to 200 nM, respectively.

`C/C=C(\C)[C@H]1OC(=O)[C@@H](C)NC(=O)[C@H]([C@H](C)CC)NC(=O)CN(C)C(=O)[C@@H](Cc2ccccc2)N(C)C(=O)[C@H](C)NC(=O)[C@@H](CC(C)C)OC(=O)/C(C)=C/C[C@H](OC(=O)N(C)CCN(C)C(=O)OCC[Si](C)(C)C)[C@@H]1C` [Compound 117]: the IC50 (in data set [1] (Homo sapiens); in the data set on HCC1954 cells (Homo sapiens)) was 20 to 200 nM throughout.

For `C/C=C(\C)[C@H]1OC(=O)[C@@H](C)NC(=O)[C@H]([C@H](C)CC)NC(=O)CN(C)C(=O)[C@@H](Cc2ccc(Cl)cc2)N(C)C(=O)[C@H](CCCCN)NC(=O)[C@@H](CC(C)C)OC(=O)/C(C)=C/CC[C@@H]1C` [Compound 118], the IC50 (in data set [1] (Homo sapiens); in the data set on HCC1954 cells (Homo sapiens)) was 200 to 10000 nM each time.

In the case of `C/C=C(\C)[C@H]1OC(=O)[C@@H](C)NC(=O)[C@H]([C@H](C)CC)NC(=O)CN(C)C(=O)[C@@H](Cc2ccc(Cl)cc2)N(C)C(=O)[C@H](CCCCNC(=O)OC(C)(C)C)NC(=O)[C@@H](CC(C)C)OC(=O)/C(C)=C/CC[C@@H]1C` [Compound 119], the IC50 (in data set [1] (Homo sapiens); in the data set on HCC1954 cells (Homo sapiens)) was less than 20 nM in each case.

For the compound `C/C=C(\C)[C@H]1OC(=O)[C@@H](C)NC(=O)[C@H](C(C)CC)NC(=O)CN(C)C(=O)[C@@H](Cc2ccccc2)N(C)C(=O)[C@H](C)NC(=O)[C@@H](CC(C)C)OC(=O)/C(C)=C/C[C@H](CC(=O)NCCOCCOCCOCCO)[C@@H]1C` (stereo partly shown) [Compound 122], the figures for the IC50 (in data set [1] (Homo sapiens); in the data set with HCC1954 cells (Homo sapiens)) were less than 20 nM and 20 to 200 nM, respectively.

On to `C/C=C(\C)[C@H]1OC(=O)[C@@H](C)NC(=O)[C@H](C(C)CC)NC(=O)CN(C)C(=O)[C@@H](Cc2ccccc2)N(C)C(=O)[C@H](C)NC(=O)[C@@H](CC(C)C)OC(=O)/C(C)=C/C[C@H](OC(=O)NCCO)[C@@H]1C` (stereo partly shown) [Compound 123], for which the IC50 (in data set [1] (Homo sapiens); in the data set on HCC1954 cells (Homo sapiens)) was less than 20 nM throughout.

Take `C/C=C(\C)[C@H]1OC(=O)[C@@H](C)NC(=O)[C@H](C(C)CC)NC(=O)CN(C)C(=O)[C@@H](Cc2c[nH]c3ccccc23)N(C)C(=O)[C@H](C)NC(=O)[C@@H](CC(C)C)OC(=O)/C(C)=C/C[C@H](O)[C@@H]1C` (stereo partly shown) [Compound 125]: the IC50 was less than 20 nM in data set [1] (Homo sapiens) and 20 to 200 nM with HCC1954 cells (Homo sapiens).

Turning to `C/C=C(\C)[C@H]1OC(=O)[C@@H](C)NC(=O)[C@H](C(C)CC)NC(=O)CN(C)C(=O)[C@@H](Cc2ccccc2)N(C)C(=O)[C@H](C)NC(=O)[C@@H](CC(C)C)OC(=O)/C(C)=C/C[C@H](OC(=O)NCCCOCCOCCOCCCNC(=O)CCSSc2ccccn2)[C@@H]1C` (stereo partly shown) [Compound L12], the IC50 in data set [1] is 200 to 10000 nM; in the data set on HCC1954 cells it was more than 10000 nM.

Regarding `C/C=C(\C)[C@H]1OC(=O)[C@@H](C)NC(=O)[C@H](C(C)CC)NC(=O)CN(C)C(=O)[C@@H](Cc2ccccc2)N(C)C(=O)[C@H](C)NC(=O)[C@@H](CC(C)C)OC(=O)/C(C)=C/C[C@H](O)[C@@H]1C` (stereo partly shown) [Kulo-2, kulo-2, reference compound], the “cytotoxicity against several cancer cell lines” value in data set [2] is listed as “potent cytotoxicity”. Moreover, the IC50 in data set [1] (Homo sapiens) was less than 20 nM; in data set [1] (Homo sapiens, 72 h, Cell Titer-Glo) it was 1.76 nM; in the data set with HCC1954 cells (Homo sapiens) it was less than 20 nM.
